Results taken from patent US7750154B2, “Amide derivatives” (AstraZeneca AB, priority 2003, dated 2010).
pIC50: −log10 of the molar value.

What was measured:
p38α = target: T1, p38α (Homo sapiens, UniProt Q16539); assay: In vitro enzyme assay, p38α kinase; type: biochemical
T1 construct: c-myc (N); 6His (N); made in house; host or cells: E. coli (PET vectors)

[1] = system: TNFα production in human whole blood; assay: Human whole blood assay, LPS-stimulated TNFα production; type: cell-based; conditions: inhibition of TNFα production
Method: The ability of a test compound to inhibit TNFα production was also assessed in a human whole blood assay. Human whole blood secretes TNFα when stimulated with LPS. […] Plates were incubated for 30 minutes at 37° C. (humidified incubator), prior to addition of 20 μl LPS (final concentration 10 μg/ml). Culture medium was added to control wells. Six “LPS alone” and six “medium alone” controls were included on each plate. A known TNFα synthesis/secretion inhibitor was included in each test. Plates were incubated for 6 hours at 37° C. (humidified incubator). Plates were centrifuged (2000 rpm for 10 minutes) and 80 μl plasma removed and stored at −80° C. (Corning 3799 plates). TNFα levels were measured by ELISA using paired antibodies from R&D Systems (catalogue nos. MAB610 and BAF210).

T1 sequence (Q16539 whole entry): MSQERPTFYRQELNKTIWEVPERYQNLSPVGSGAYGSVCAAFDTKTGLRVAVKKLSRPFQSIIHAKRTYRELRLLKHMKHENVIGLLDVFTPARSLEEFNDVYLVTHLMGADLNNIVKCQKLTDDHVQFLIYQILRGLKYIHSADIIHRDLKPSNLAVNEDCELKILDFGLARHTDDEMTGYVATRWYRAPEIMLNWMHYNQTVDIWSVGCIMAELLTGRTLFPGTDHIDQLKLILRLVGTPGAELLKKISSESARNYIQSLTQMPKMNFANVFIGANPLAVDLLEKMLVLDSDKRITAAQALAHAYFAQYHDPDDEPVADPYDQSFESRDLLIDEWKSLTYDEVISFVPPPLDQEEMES

Compound | pIC50 (p38α) | pIC50 [1]
Cc1ccc(C(=O)NC2(C)CC2)cc1-n1cnc2ccc(N3CCN(C)CC3)cc2c1=O [6 (a), 4-methyl-N-(1-methylcyclopropyl)-3-[6-(4-methylpiperazin-1-yl)-4-oxoquinazolin-3(4H)-yl]benzamide] | 7.09 | 6.45
Cc1ccc(C(=O)NC2CC2)cc1-n1cnc2ccc(OCCN(C)C)cc2c1=O [Example 24, N-Cyclopropyl-3-[6-[2-(dimethylamino)ethoxy]-4-oxoquinazolin-3(4H)-yl]-4-methylbenzamide] | 7.72 | 7.77
CCCN1CCCN(c2ccc3ncn(-c4cc(C(=O)NC5CC5)ccc4C)c(=O)c3c2)CC1 [Example 7, N-cyclopropyl-4-methyl-3-[4-oxo-6-(4-propyl-1,4-diazepan-1-yl)quinazolin-3(4H)-yl]benzamide] | 8.10 | 7.47
Cc1ccc(NC(=O)c2ccnc(Cl)c2)cc1-n1cnc2ccc(N3CCN(C)CC3)cc2c1=O [Comparator Compound A, 3-[5-(2-chloropyrid-4-ylcarbonylamino)-2-methylphenyl]-6-(4-methylpiperazin-1-yl)-3,4-dihydroquinazolin-4-one, reference compound] | 6.56 | 5.43
Cc1ccc(NC(=O)c2cc(F)cc(F)c2)cc1-n1cnc2ccc(N3CCN(C)CC3)cc2c1=O [Comparator Compound B, 3-[5-(3,5-difluorobenzamido)-2-methylphenyl]-6-(4-methylpiperazin-1-yl)-3,4-dihydroquinazolin-4-one, reference compound] | 7.39 | 5.41
